# Tests used:
# [1] = test system: C2C12-PHF20/YY1-promoter-GFP cell line; assay: HTS system: GFP (green luminescence) in PHF20-overexpressing myoblasts carrying YY1 promoter-GFP; format: cell-based, mouse; settings: 10 μM compound, 24 h, after 250 ng/ml doxycycline 24 h; FDA-approved drug library of 1670 compounds
# Description: C2C12 myoblasts, which were stable cells in which PHF20 was overexpressed, were transformed with a plasmid coexisting with a YY1 promoter and GFP, which inhibited muscle differentiation, to prepare a stable cell line. The degree of GFP signal suppression was quantified and measured, and the degree of muscle differentiation was used as a quantitative measurement index (FIG. 1).
# Specifically, the C2C12-PHF20/YY1-promoter-GFP cell line according to Example 1 was dispensed in a 96-well plate at 0.5×10^5, cultured for 24 hours, and cells in a 70% confluent state were treated with 250 ng/ml of doxycycline for 24 hours, and then treated with each compound at a final concentration of 10 μM.
# For fluorescence intensity, C2C12-PHF20/YY1-promoter-GFP cells were dispensed at 4×10^5 in a 6-well culture plate and cultured for 24 hours. […] Thereafter, the degree of green luminescence was confirmed using GloMax microplate readers explorer (Promega, Madison, Wisconsin, USA).
# [2] = Body weight in aging mouse model; format: in vivo; settings: oral 5, 50, 500 mpk daily for 28 days, vs PBS
# Method: (§1) In order to confirm the treadmill exercise capacity according to a dose of sulfasalazine, the mice divided in 3-1 above were orally administered at 10:30 every day for 28 days with Group 1 of PBS (Hyclone Dulbecco's Phaosphate Buffer saline Cat. SH30028.02), Group 2 of sulfasalazine (Sigma, Cat. Nr S0883. CAS Number 599-79-1) 5 mpk, Group 3 of sulfasalazine 50 mpk, and Group 4 of sulfasalazine 500 mpk. In order to reduce an error on treadmill exercise ability, the mice were starved for 3 hours before measuring the treadmill, and then the treadmill was performed 4 times at 7-day intervals (0 days, 7 days, 14 days, and […]) according to Table 1 below.
# For a total of 28 days, the body weight of the mouse was measured, and any change in body weight was confirmed.
# aging mouse model [3] = assay: Treadmill exercise capacity in aging mouse model; format: in vivo; settings: oral 5, 50, 500 mpk daily for 28 days, vs PBS (G1)
# Method: Treadmill adaptation was performed randomly for 3 days under conditions of grade 0, speed 15 (cm/sec), 10 minutes, electrical stimulation […] (defined as exhaustion when electrical stimulation occurred consecutive 4 times or more), and according to the treadmill result, mice with similar ability were distributed into each group and divided into 4 groups of 8 mice per group.
# as §1
# aging mouse model [4] = assay: Rota Rod balance ability in aging mouse model; format: in vivo; settings: oral 5, 50, 500 mg/kg daily for 28 days; days 0, 7, 14, 21, 28
# Method: (§2) In order to confirm the balance ability and the grip strength recovery effect of the Rota Rod according to a dose of sulfasalazine, 50-week-old C57BL/6J male mice were divided into Group 1 of PBS, Group 2 of sulfasalazine 5 mg/kg, Group 3 of sulfasalazine 50 mg/kg, and Group 4 of sulfasalazine 500 mg/kg, and orally administered every day at 10 am for 28 days, and then the body weight was measured.
# (§3) The Rota Rod was measured on days 0, 7, 14, 21, and 28 with the animal group constructed in Group 2 under the conditions shown in Table 2 below, and the results were shown in FIG. 11 ((*) p≤0.05 vs G1). In the same animal group as the Rota Rod, the grip strength was measured on the 2 paws and 4 paws of the mouse on days 0, 9, 16, 23, and 28, and the results were shown in FIGS. 12A and 12B.
# aging mouse model [5] = assay: Grip strength in aging mouse model; format: in vivo; settings: oral 5, 50, 500 mg/kg daily for 28 days; vs control Group 1
# Method: as §2, §3
# [6] = Body weight in high-fat diet CTX-induced sarcopenia mouse model; format: in vivo; settings: oral 5, 50, 500 mg/kg daily for 14 days
# Method: (§4) In order to construct a high-fat diet CTX-induced sarcopenia mouse model, for 23-week-old C57BL/6J male mice subjected to 60% HFD for 19 weeks, cardiotoxin (LATOXAN, Portes-lés-Valence, France) was dissolved at 1 mg/ml in PBS to make a high-concentration stock solution. For application to mice, the stock solution was diluted again in PBS (Hyclone Dulbecco's Phaosphate Buffer saline Cat. SH30028.02) to a final concentration of 0.03 mg/ml and used, and intramuscularly injected into both quadriceps muscles of the mouse using a 1 ml syringe (24 G) to construct the high-fat diet CTX-induced sarcopenia mouse model.
# (§5) Five groups of Group 1 of orally administering PBS to a high-fat diet mouse without injecting CTX, Group 2 of orally administering PBS to a high-fat diet mouse injected with CTX, Group 3 of orally administering sulfasalazine 5 mg/kg to the high-fat diet mouse injected with CTX, Group 4 of orally administering sulfasalazine 50 mg/kg to the high-fat diet mouse injected with CTX, and Group 5 of orally administering sulfasalazine 500 mg/kg to the high-fat diet mouse injected with CTX were divided and orally administered at 10 am every day for 14 days, and the body weights were measured and the results were shown in FIG. 13.
# [7] = test system: high-fat diet CTX-induced sarcopenia mouse model; assay: Rota Rod balance ability in high-fat diet CTX-induced sarcopenia mouse model; format: in vivo; settings: oral 5, 50, 500 mg/kg daily for 14 days; days 4, 8, 12; vs group injected with CTX
# Method: as §4
# as §5, with “13. […]” for “13.”
# [8] = test system: high-fat diet CTX-induced sarcopenia mouse model; assay: Grip strength in high-fat diet CTX-induced sarcopenia mouse model; format: in vivo; settings: oral 5, 50, 500 mg/kg daily for 14 days; days 5, 9, 13; vs group injected with CTX
# Method: as §4
# as §5, with “13. […]” for “13.”
# [9] = Body weight in Velcro injured sarcopenia mouse model; format: in vivo; settings: oral 5, 50, 500 mg/kg daily for 14 days
# Description: (§6) The left leg of an 8-week-old C57BL/6J male mouse was anesthetized with isoflurane, the entire leg was wound from the ankle with a 5 cm sports tape, and then wound and fixed with a Velcro with a width of 10 mm, and the Velcro condition was checked every day for 14 days (FIG. 16). Meanwhile, in the present disclosure, Velcro injury means that muscle damage is caused by such Velcro by winding the muscle with the Velcro so as not to move.
# (§7) In order to confirm the amount of treadmill exercise according to the dose of sulfasalazine, Group 1 (n=5) of orally administering PBS to 8-week-old C57BL/6J male mice without injury, Group 2 (n=5) of orally administering PBS to mice with Velcro injury, Group 3 (n=5) of orally administering sulfasalazine 5 mg/kg to mice with Velcro injury, Group 4 (n=5) of orally administering sulfasalazine 50 mg/kg to mice with Velcro injury, and Group 5 (n=5) of orally administering sulfasalazine 500 mg/kg to mice with Velcro injury were divided and orally administered at 10 am every day for 14 days, and the body weights were measured and the results were illustrated in FIG. 18. […]
# For a total of 14 days, the body weights of the mice were measured, and any change in body weight was confirmed.
# [10] = test system: Velcro injured sarcopenia mouse model; assay: Treadmill exercise capacity in Velcro injured sarcopenia mouse model; format: in vivo; settings: oral 5, 50, 500 mg/kg; days 0, 3, 6, 10, 14; after day 6 of administration
# Description: as §6, §7
smiles,measurement,setting,value
Nc1ccc(S(=O)(=O)Nc2ccccn2)cc1 [sulfapyridine],degree of green luminescence (GFP inhibition) in screening,[1],effect of reducing green luminescence
COc1cnc(NS(=O)(=O)c2ccc(N)cc2)nc1 [sulfameter],degree of green luminescence (GFP inhibition) in screening,[1],effect of reducing green luminescence
COc1ncnc(NS(=O)(=O)c2ccc(N)cc2)c1OC [sulfadoxin],degree of green luminescence (GFP inhibition) in screening,[1],effect of reducing green luminescence
COc1cc(NS(=O)(=O)c2ccc(N)cc2)nc(OC)n1 [sulfadimethoxine],degree of green luminescence (GFP inhibition) in screening,[1],effect of reducing green luminescence
Nc1ccc(S(=O)(=O)Nc2ncccn2)cc1 [sulfadiazine],degree of green luminescence (GFP inhibition) in screening,[1],effect of reducing green luminescence
O=C(O)c1cc(/N=N/c2ccc(S(=O)(=O)Nc3ccccn3)cc2)ccc1O [sulfasalazine],degree of green luminescence (GFP inhibition) in screening,[1],effect of reducing green luminescence
same,body weight,[2],no difference in body weight was observed
same,treadmill exercise capacity (latency to fall),aging mouse model [3],"the higher the sulfasalazine dose, the higher the treadmill exercise capacity"
same,balance ability on the Rota Rod,aging mouse model [4],recovery of balance ability of the mouse on the Rota Rod was improved
same,"grip strength, 2 paws",aging mouse model [5],grip strength was improved with the increase in sulfasalazine dose
same,"grip strength, 4 paws",aging mouse model [5],grip strength was improved with the increase in sulfasalazine dose
same,body weight,[6],no difference in body weight was observed
same,balance ability on the Rota Rod,[7],recovery of balance ability of the mouse on the Rota Rod was improved
same,"grip strength, 2 paws",[8],grip strength was improved with the increase in sulfasalazine dose
same,"grip strength, 4 paws",[8],grip strength was improved with the increase in sulfasalazine dose
same,body weight,[9],no difference in body weight was observed
same,treadmill running distance,[10],treadmill running distances were increased as the administration period was increased
same,treadmill running time,[10],treadmill running time was increased as the administration period was increased
N=C(N)NS(=O)(=O)c1ccc(N)cc1 [sulfaguanidine],degree of green luminescence (GFP inhibition) in screening,[1],effect of reducing green luminescence
Nc1ccc(S(=O)(=O)Nc2nccs2)cc1 [sulfathiazole],degree of green luminescence (GFP inhibition) in screening,[1],effect of reducing green luminescence
Nc1ccc(S(N)(=O)=O)cc1 [sulfanilamide],degree of green luminescence (GFP inhibition) in screening,[1],effect of reducing green luminescence
Cc1nnc(NS(=O)(=O)c2ccc(N)cc2)s1 [sulfamethizole],degree of green luminescence (GFP inhibition) in screening,[1],effect of reducing green luminescence
Nc1ccc(S(=O)(=O)Nc2ccnn2-c2ccccc2)cc1 [sulfaphenazole],degree of green luminescence (GFP inhibition) in screening,[1],effect of reducing green luminescence
